# According to patent publication US20070066526A1, “Method for reducing risk of and extent of injury due to stroke in hypertensive subjects” (priority 2005, published 2007):
# Assays:
# Dahl salt-sensitive rats = experiment: Laser Doppler flowmetry of cerebral blood flow in hypertensive Dahl rats; settings: 11 weeks old, intraperitoneal injection 0.2 mg/kg, 25 min post-treatment vs baseline, mean±SEM
# Description: Six week old Dahl salt-sensitive rats were placed on an 8% high-salt diet to induce hypertension. Cerebral brain flow (CBF) was measured at 11 weeks, 4 weeks following high-salt diet onset. A burr hole was drilled 1 mm posterior and 6 mm lateral to bregma, corresponding to the ischemic territory. A laser Doppler transducer probe (Laserflo) was affixed above the cortex using a stereotaxic frame (Harvard Apparatus, MA), and a baseline CBF was established over a period of 20-30 minutes (1 minute intervals), Tat control peptide (n=5) or δV1-1-Tat peptide (n=15) was injected by intraperitoneal injection (0.2 mg/kg in 1 mL) and cerebral brain flow was monitored for an additional 20-30 minutes. Cerebral brain flow was also measured in the sham control animals (n=4).
# Analysis of changes in cerebral brain flow was performed by comparing the baseline flow-rate at 20 minutes, to the flow-rate at 25 minutes post-treatment in all animals. Results were expressed as both a scattergram of percent flow changes in individual animals, and the mean±SEM flow in each group. Statistical analysis between Tat and δV1-1-Tat treatment groups was performed using an unpaired t-test.
# [1] = test system: hypertensive Dahl salt-sensitive rats; experiment: Middle cerebral artery occlusion, infarct size by TTC staining in hypertensive Dahl rats; assay type: in vivo, rat
# εPKC = target: T1, εPKC (Rattus norvegicus, UniProt P09216); experiment: Western blot of εPKC translocation in brain of Dahl hypertensive rats; settings: sustained subcutaneous pump delivery, same blot reprobed
# T1 sequence (P09216 1-737): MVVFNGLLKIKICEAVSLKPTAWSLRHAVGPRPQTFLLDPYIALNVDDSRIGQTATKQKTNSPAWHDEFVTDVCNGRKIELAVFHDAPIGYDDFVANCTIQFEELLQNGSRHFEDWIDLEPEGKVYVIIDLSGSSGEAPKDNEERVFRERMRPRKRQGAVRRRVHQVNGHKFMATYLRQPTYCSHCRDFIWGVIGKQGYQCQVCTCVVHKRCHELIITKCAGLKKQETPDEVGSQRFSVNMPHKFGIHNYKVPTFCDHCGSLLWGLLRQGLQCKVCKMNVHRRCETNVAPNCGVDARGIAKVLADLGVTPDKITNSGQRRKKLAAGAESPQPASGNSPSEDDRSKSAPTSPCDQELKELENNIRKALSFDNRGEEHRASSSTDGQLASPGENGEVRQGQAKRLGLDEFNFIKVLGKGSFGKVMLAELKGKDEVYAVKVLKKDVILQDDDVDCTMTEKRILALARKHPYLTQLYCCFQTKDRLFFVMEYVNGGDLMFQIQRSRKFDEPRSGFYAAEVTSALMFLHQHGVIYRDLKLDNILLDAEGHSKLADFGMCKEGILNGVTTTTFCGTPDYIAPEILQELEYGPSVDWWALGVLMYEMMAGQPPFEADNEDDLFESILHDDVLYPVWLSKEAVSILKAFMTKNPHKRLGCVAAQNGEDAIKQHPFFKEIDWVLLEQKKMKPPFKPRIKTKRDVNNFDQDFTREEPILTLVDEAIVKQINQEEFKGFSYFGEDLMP
# δPKC [2] = target: δPKC (Rattus norvegicus, UniProt P09215); experiment: Western blot of δPKC translocation (soluble to membrane fraction) in brain of Dahl hypertensive rats; settings: sustained subcutaneous pump delivery 4-6 weeks, n=3
# Description: Dahl rats were implanted with pumps for subcutaneous delivering δV1-1-Tat or Tat control peptide for 4-6 weeks. δPKC activity in brain samples was assessed by determining the translocation of the enzyme from the soluble, cytosolic fraction, to the membrane-bound fraction, a standard marker for PKC activation (Kraft, A. S. et al., Nature, 301:621-3 (1983)).
# The density of the bands was measured to assess PKC translocation, as a measure of δPKC activation.
# Brains from Dahl hypertensive rats that received δV1-1-Tat or Tat peptide delivery for 4 weeks, starting at 11 weeks of age, were quickly isolated and frozen. Tissue fractionation was performed to collect soluble (cytosolic) and particulate (membrane) fractions, as previously described (Johnson, J. A. et al., Life Sci., 57:1027-38(1995)). 5 μg of protein from each fraction was used forwestern blot analysis using a rabbit anti-phospho-serine 643 δPKC antibody (Santa Cruz Biotechnology; 1:500) followed with an anti-rabbit secondary antibody (Amersham). Density of δPKC bands was measured to assess translocation of PKC from the cytosol to membrane fractions, a measure of activation (Kraft, A. S. et al., Nature, 301:621-3 (1983)). Blots were then reprobed with a rabbit anti-δPKC antibody (Santa Cruz Biotechnology; 1:500), to assess translocation of the δPKC isozyme. Statistical analysis was performed using students t-test.
# δPKC [3] = settings: normotensive animals, sustained delivery; cited from earlier work
# δPKC (Rattus norvegicus, UniProt P09215), sequence (P09215 whole entry): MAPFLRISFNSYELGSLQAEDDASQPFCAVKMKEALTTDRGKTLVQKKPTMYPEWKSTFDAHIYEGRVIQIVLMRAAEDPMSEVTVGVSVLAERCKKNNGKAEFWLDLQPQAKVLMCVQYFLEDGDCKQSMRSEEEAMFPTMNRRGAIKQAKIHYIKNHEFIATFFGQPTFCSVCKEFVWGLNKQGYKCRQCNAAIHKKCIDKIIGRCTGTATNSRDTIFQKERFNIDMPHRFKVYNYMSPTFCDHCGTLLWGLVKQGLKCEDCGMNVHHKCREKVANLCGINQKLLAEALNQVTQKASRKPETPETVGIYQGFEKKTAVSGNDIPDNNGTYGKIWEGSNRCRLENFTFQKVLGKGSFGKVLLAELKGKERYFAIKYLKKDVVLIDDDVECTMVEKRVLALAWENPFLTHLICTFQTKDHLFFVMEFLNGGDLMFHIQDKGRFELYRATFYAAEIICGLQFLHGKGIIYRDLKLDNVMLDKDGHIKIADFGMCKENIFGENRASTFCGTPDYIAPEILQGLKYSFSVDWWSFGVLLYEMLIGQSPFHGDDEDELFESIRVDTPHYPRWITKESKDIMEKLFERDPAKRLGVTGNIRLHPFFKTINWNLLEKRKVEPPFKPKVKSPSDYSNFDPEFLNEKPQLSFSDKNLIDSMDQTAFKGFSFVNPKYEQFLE
sequence,measurement,setting,value
YGRKKRRQRRR [Tat],change in cerebral blood flow from baseline,Dahl salt-sensitive rats,−5±9%
same,infarct size (relative stroke area),"[1]; rat, in vivo, sc",39±3%
same,"εPKC activation, percent translocation",εPKC,46±5 % translocation
same,"δPKC activation, percent translocation",δPKC [2],49±1 % translocation
SFNSYELGSL (listed as Rattus norvegicus) [δV1-1],change in cerebral blood flow from baseline,Dahl salt-sensitive rats,12%
same,reduction of infarct size compared with Tat controls,"[1]; 90 min MCA occlusion, 24 h reperfusion, chronic subcutaneous pump delivery, animals without hemorrhage",25%
same,infarct size (relative stroke area),"[1]; 90 min MCA occlusion, 24 h reperfusion, chronic subcutaneous pump delivery, animals without hemorrhage, n=6-7 per group",30±4%
same,δPKC activity in the brain,δPKC [3],inhibits δPKC activity
